Results taken from patent US20200215025A1, “TREATMENT OF EXCITOTOXICITY” (priority 2017, published 2020).
Where “and” joins values, the source holds several entries; their conditions need not be identical. Equal values may be shown once. Entries after “also recorded” stand apart in the source; their conditions may differ.

Legend:
rHEK293-GCaMP5g cells [1] = assay: Ca2+ re-entry in rHEK293-GCaMP5g cells after Ca2+ store depletion (FlexStation 3); format: cell-based, human; details: carbachol 100 μM; for EC50: Ca2+ 1.3 mM restored, areas under the curve (RFU) normalised to DMSO control, read-out: EC50, inhibition of Ca2+ re-entry; for Block of Ca2+ re-entry: compound 4 μM, 1.3 mM Ca2+ restored
Text: (§1) Untransfected human embryonic kidney 293 (HEK293) cells are a model for neuronal cell Ca^2+ signalling via Gq type G protein-coupled receptors (such as the metabotropic glutamate receptors). […] The current study utilised a custom-developed recombinant human embryonic kidney 293 (rHEK293) cell line stably over-expressing a genetically encoded Ca^2+ reporter (GCaMP5g—after [Akerboom J et al., 2012 Journal of Neuroscience, 32(40): 13819-13840]). This enabled imaging of the Ca^2+ store release under conditions where Carbachol (muscarinic receptor agonist)—induced Ca^2+ store release via the endogenous M3 muscarinic receptor—was delivered in a solution (in mM: NaCl 145; KCl 5.8; MgCl2 0.9; HEPES 10, NaH2PO4 0.7, d-glucose 5.6; pH 7.2-7.4, osmolarity 310-330 mOsm/L), lacking Ca^2+, to the wells containing the adherent rHEK293-GCaMP5g cells, using a FlexStation 3 multi-modal microplate reader (Molecular Devices). This paradigm, with sustained Carbachol presentation, results in extrusion of the cytosolic Ca^2+ from the cell via plasma membrane Ca^2+ pumps, alongside Ca^2+ store depletion. When Ca^2+ is then added to the media, a Ca^2+ signal is detected that reflects Ca^2+ entry into the cells via Ca^2+ entry pathways [Elliott, 2001 Cell calcium, 30, 73-93].
(§2) This study investigated the effect of Nx-1 and Nx-2 on the Ca^2+ re-entry in the rHEK293-GCaMP5g cells using the FlexStation 3 plate reader in ‘Flex Read’ configuration (485 nm excitation, 510 nm emission, 6 flashes per sample, medium detector sensitivity, 37° C., 780 sample points at 1.54 s intervals). The cells were seeded into the 96 well plates in DMEM media with 10% foetal calf serum supplement. The cells approached confluence at ˜66 hours at which stage the cells were washed with the Ca^2+-free solution, and then the drug was added in Ca^2+ free solution (80 μl) and the plate was then placed into the FlexStation plate reader (37° C.) and rested for 30 minutes prior to imaging. The Carbachol (final concentration 100 μM in Ca^2+ free solution; drug at specified concentration) was added 180 seconds after the start of the Ca^2+ imaging read. The Ca^2+ entry was triggered at 480 seconds by adding 10 μl of Carbachol in Ca^2+ solution with the drug (final concentrations: 100 uM Carbachol, Ca^2+1.3 mM; drug at specified concentration). The Ca^2+ imaging proceeded for a total duration of 20 minutes. Controls utilized DMSO carrier at corresponding dilution used with the drug at specified concentrations. Data analysis was based on the areas under the curves (RFU—relative fluorescence Units), with statistical analysis using Sigmaplot (Systat software, version 12.0) and graphics produced using Graphpad Prism (Graphpad Software, version 7.02).

rHEK293-GCaMP5g cells [2] = assay: Carbachol-induced Ca2+ store release in rHEK293-GCaMP5g cells (FlexStation 3); format: cell-based, human; details: for EC50: carbachol 100 μM in Ca2+ free solution, areas under the curve (RFU) normalised to DMSO control, read-out: EC50, inhibition of Ca2+ store release; for Block of carbachol-induced Ca2+ store release: compound 4 μM, carbachol 100 μM, Ca2+ free solution
Text: as §1, §2

mice (C57BI/6J) = assay: Photothrombotic cerebral cortex infarct model in mice; format: in vivo, mouse; details: for Infarct volume, 5 DPI carrier versus 5 DPI drug (ANOVA, Holm-Sidak): Nx-2 p=0.025, Nx-1 p=0.886
Experimental: All in vivo experiments were performed with University of New South Wales (UNSW) Sydney Animal Care and Ethics Committee approval. To undertake this randomized blinded photothrombotic study, male and female mice (C57BI/6J) aged 2-4 months (20-30 g) were anaesthetised with a 4% isoflurane induction (on O2) and fixed onto a stereotaxic frame. Anaesthesia was maintained at 1.5% isoflurane for the rest of the procedure. The animals were constantly monitored for their heart rate and oxygen saturation with their body temperature maintained at 37±1° C. (Kent Scientific Physiology Suite system). An ophthalmological ointment was applied to the eyes for corneal protection. Analgesia Temgesic (Buprenorphine; 0.15 mg/kg; 0.32 mg/ml) was administered intramuscularly, using a 27G needle. The skull was shaved over the target cerebral cortex region and a local anaesthetic Lignocaine was injected subcutaneously (27 needle; 20 mg/ml). A midline incision was made through the skin to expose the cranium and the periosteum was removed. The surface of the cranium was made lucid by applying ophthalmological gel over the surface. The fibre-optic coupled green LED (532 nm; ˜1 mW; 1 mm diameter light guide, Thorlabs, USA) was placed over the left hemisphere of cerebral cortex (3 mm rostral to lambda; 2 mm from the midline) followed by injection of photosensitising dye Rose Bengal (50 mg/kg) with a 29G needle via the tail vein. The skull was illuminated for 5 minutes to trigger the localized thrombus formation at the target region of cerebral cortex. The skin was then sutured and the isoflurane anaesthesia was discontinued, while providing 100% oxygen until the mice regained consciousness. Mice were injected with saline (intraperitoneal, 250 μl) during the recovery phase for rehydration. The mouse was maintained on the rectal probe feedback controlled heating pad in a recovery cage until ambulatory (˜20 min) and then the animal was placed back in its cage with food and water. The mice were monitored for signs of post-operative stress on a daily basis for the five day treatment period. Mice were administered with either the carrier or Nx-2 drug (100 mg/kg) via a rectal suppository, 45 minutes after the photothrombotic lesion, and then every 24 hours for a further 4 days in the conscious mouse. At 5 days post-infarct, the mice were euthanized via an intraperitoneal injection of Lethabarb (100 mg/kg; 27 G needle), following which the mice were transcardially perfused with 4% paraformaldehyde (PFA) in phosphate buffer (0.1 M, pH 7.4). The brains were dissected out and post-fixed for overnight in 4% PFA at 4° C. The brains were cryoprotected in 10% and 30% sucrose made in 0.01 M PBS solutions overnight respectively. Images of the surface infarct were captured on a dissecting microscope. Following cryoprotection, the brains were sectioned coronally (50 μm thick) and kept in 0.01 M PBS until they were imaged under the darkfield microscope. The Image J (NIH) software was used to measure the surface area of the infarct and darkfield sections enabled measurement of the cross sectional area of the infarct (Image J, NIH). Total infarct volume was quantified by summation of areas of infarct from darkfield sections integrated with thickness of the tissue. Descriptive statistics, ANOVA and t-tests were performed to detect the significance difference among the treatment groups using Sigmaplot (Systat software, version 12.0) after establishing normal distribution of the data (alpha=0.05).
The skull of the mouse (C57BI/6J strain) was exposed to enable fibre optic illumination of a region of the cerebral cortex with green light (532 nm) to trigger localized thrombus formation due to tail vein injection of the photo sensitizing dye Rose Bengal. Macroscopic representation of the photo-thrombotic infarct was assessed 5 days post injury in mice treated with carrier only or with Nx-1 drug. […]

Row | Compound | EC50 (rHEK293-GCaMP5g cells [1]) | Block of Ca2+ re-entry (rHEK293-GCaMP5g cells [1]) | EC50 (rHEK293-GCaMP5g cells [2]) | Block of carbachol-induced Ca2+ store release (rHEK293-GCaMP5g cells [2]) | Infarct volume, 5 DPI carrier versus 5 DPI drug (ANOVA, Holm-Sidak) (mice (C57BI/6J); 100 mg/kg) | Surface infarct area, 5 DPI drug versus core infarct (2 HPI control) (mice (C57BI/6J); 100 mg/kg, p=0.064) | Neuroprotection, share of the penumbra expansion (surface infarct area) (mice (C57BI/6J); 5 DPI, 100 mg/kg, relative to 2 HPI core infarct and 5 DPI carrier) [%] | infarct surface area (mice (C57BI/6J); 5 days post infarct, 100 mg/kg rectal suppository 45 min after lesion then every 24 h for 4 days, individual mice) | infarct volume (mice (C57BI/6J); Table 3, 5 days post infarct, Nx-2 100 mg/kg rectal suppository, individual mice) | EC50 (rHEK293-GCaMP5g cells [1]; Homo sapiens) [µM] | EC50 (rHEK293-GCaMP5g cells [2]; Homo sapiens) [µM] | infarct volume (mice (C57BI/6J); Table 5, 5 days post infarct, Nx-1 100 mg/kg, individual mice) | infarct volume (mice (C57BI/6J); Table 7, 5 days post infarct, Nx-1 100 mg/kg, individual mice)
1 | COc1ccc(C2c3ccc(O)cc3OCC2c2ccc(O)cc2)cc1 (racemic) [Nx-2] | ~0.6 µM and ~0.7 µM | Block | ~0.6 µM and ~0.7 µM | Block; also recorded: virtually blocked | significant difference | not significantly different | 50 | 6.56 mm^2 (2×) and 8.99 mm^2 and 8.19 mm^2 and 5.79 mm^2 and 6.70 mm^2 | 13.29 mm^3 and 10.34 mm^3 and 14.65 mm^3 and 12.02 mm^3 and 10.51 mm^3 and 13.76 mm^3 | – | – | – | –
2 | Oc1ccc(C2=Cc3ccc(O)cc3OC2)cc1 [Nx-1] | ~2 µM | blocked | ~2 µM | block; also recorded: virtually blocked | not significantly different | – | – | – | – | ~1.5 | ~1.5 | 11.80 mm^3 and 18.94 mm^3 and 14.16 mm^3 and 16.84 mm^3 | 11.80 mm^3 and 18.94 mm^3 and 14.16 mm^3 and 16.84 mm^3
